{"source": "patent EP0429999A1", "about": "“Novel cephalosporins, process for their preparation and their use as medicaments” (BAYER AG, priority 1989, dated 1991)", "assay_in_all_cases": "MIC (MHK), agar dilution on Iso-Sensitest agar, multipoint inoculator", "assay_type_in_all_cases": "cell-based", "key": {"Staph. aur. 25455": {"system": "Staph. aur. 25455", "details": "strain Staph. aur. 25455; 37°C, read after ca. 20 h, ca. 10^4 colony-forming particles per inoculation point", "excerpt": "(§1) Die minimalen Hemmkonzentrationen (MHK) wurden per Reihenverdünnungsverfahren auf Iso-Sensitest Agar (Oxoid) bestimmt. Für jede Prüfsubstanz wurde eine Reihe von Agarplatten hergestellt, die bei jeweils doppelter Verdünnung abfallende Konzentrationen des Wirkstoffes enthielten. Die Agarplatten wurden mit einem MultipointInokulator (Denley) beimpft. Zum Beimpfen wurden Übernachtkulturen der Erreger verwandt, die zuvor so verdünnt wurden, daß jeder Impfpunkt ca. 10^4 koloniebildende Partikel enthielt. Die beimpften Agarplatten wurden bei 37°C bebrütet, und das Keimwachstum wurde nach ca. 20 Stunden abgelesen. Der MHK-Wert (µg/ml) gibt die niedrigste Wirkstoffkonzentration an, bei der mit bloßem Auge kein Keimwachstum zu erkennen war.\n(§2) MHK-Werte: Agarverdünnung/Multipoint"}, "Enterococc. 27185": {"system": "Enterococc. 27185", "details": "strain Enterococc. 27185; 37°C, read after ca. 20 h, ca. 10^4 colony-forming particles per inoculation point", "excerpt": "as §1, §2"}, "Strept. faec. 27101": {"system": "Strept. faec. 27101", "details": "strain Strept. faec. 27101; 37°C, read after ca. 20 h, ca. 10^4 colony-forming particles per inoculation point", "excerpt": "as §1, §2"}, "Klebs. 6097": {"system": "Klebs. 6097", "details": "strain Klebs. 6097; 37°C, read after ca. 20 h, ca. 10^4 colony-forming particles per inoculation point", "excerpt": "as §1, §2"}, "Staph. epi. 25185": {"system": "Staph. epi. 25185", "details": "strain Staph. epi. 25185; 37°C, read after ca. 20 h, ca. 10^4 colony-forming particles per inoculation point", "excerpt": "as §1, §2"}, "E. coli A 261": {"system": "E. coli A 261", "details": "Escherichia coli, A261; strain E. coli A 261; 37°C, read after ca. 20 h, ca. 10^4 colony-forming particles per inoculation point", "excerpt": "as §1, §2"}}}
{"smiles": "C/C=C\\C1=C(C(=O)O)N2C(=O)[C@@H](NC(=O)[C@H](N)c3cc4sc(N)nc4s3)[C@H]2SC1", "note": "[Beispiel 13a]", "values": [{"measurement": "MIC", "setting": "Staph. aur. 25455", "value": "≤ 0.25", "unit": "µg/mL"}, {"measurement": "MIC", "setting": "Enterococc. 27185", "value": 2, "unit": "µg/mL"}, {"measurement": "MIC", "setting": "Strept. faec. 27101", "value": 16, "unit": "µg/mL"}, {"measurement": "MIC", "setting": "Klebs. 6097", "value": 2, "unit": "µg/mL"}, {"measurement": "MIC", "setting": "Staph. epi. 25185", "value": "≤ 0.25", "unit": "µg/mL"}, {"measurement": "MIC", "setting": "E. coli A 261", "value": 4, "unit": "µg/mL"}]}
